Data taken from ChEMBL document CHEMBL1201862, “PubChem BioAssay data set” (2004).
Active and inactive are the calls of the source. Unless noted, the calls are words filed in the database; no cut-off is given here.

Key:
[1] = biological target: T1, Eukaryotic translation initiation factor 4H (Homo sapiens, UniProt Q15056); experiment: human eIF4H binding inhibitors, primary screen, translation initiation inhibitor project, biochemical, uHTS, fluorescence polarization (AID 2012)
[2] = biological target: T2, Polyadenylate-binding protein 1 (Homo sapiens, UniProt P11940); experiment: PABP poly(A) RNA binding inhibitors, primary screen, biochemical, fluorescence polarization, uHTS (AID 2014)
T2 sequence (P11940 whole entry): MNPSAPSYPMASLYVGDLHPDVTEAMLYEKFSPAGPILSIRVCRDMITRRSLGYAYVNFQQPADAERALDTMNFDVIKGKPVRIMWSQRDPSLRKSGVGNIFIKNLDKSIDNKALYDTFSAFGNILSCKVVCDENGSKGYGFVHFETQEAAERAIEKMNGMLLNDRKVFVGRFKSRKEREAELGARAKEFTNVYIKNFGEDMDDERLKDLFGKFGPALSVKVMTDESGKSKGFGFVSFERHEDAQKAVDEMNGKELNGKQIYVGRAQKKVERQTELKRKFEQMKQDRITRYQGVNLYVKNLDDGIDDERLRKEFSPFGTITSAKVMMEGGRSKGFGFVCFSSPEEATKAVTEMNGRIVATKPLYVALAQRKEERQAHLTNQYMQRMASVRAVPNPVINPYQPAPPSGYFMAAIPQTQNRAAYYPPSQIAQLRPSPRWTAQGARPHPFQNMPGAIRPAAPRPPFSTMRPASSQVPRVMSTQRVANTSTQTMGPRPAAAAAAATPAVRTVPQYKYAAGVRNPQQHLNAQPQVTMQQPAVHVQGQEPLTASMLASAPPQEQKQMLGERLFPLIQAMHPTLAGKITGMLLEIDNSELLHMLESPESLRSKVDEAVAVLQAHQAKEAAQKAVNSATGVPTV

[3] = HEp-2 cell cytotoxicity, dose response, cytotoxicity control for RSV inhibitor project, HTS (AID 2410); type: functional; settings: human respiratory syncytial virus
[4] = inhibitors of intracellular T. cruzi replication, confirmation, NIH3T3 host cells, beta-gal luminescence (AID 2044); type: functional, cell-based;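 further: intracellular parasites grown in NIH/3T3 mouse fibroblasts as host cells; luminescent beta-galactosidase reporter signal from transgenic T. cruzi replicating inside host cells; inhibitors lower the luminescence signal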
[5] = biological target: NADPH oxidase 1 (Homo sapiens, UniProt Q9Y5S8); experiment: Luminescence-based cell-based dose response assay to identify inhibitors of NADPH oxidase 1 (NOX1).; type: functional
[6] = cytotoxicity toward NIH3T3 fibroblasts, dose response, counter-screen, cell-based, ATP luminescence, mouse fibroblasts (AID 2010); type: functional;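 further: cells exposed to compound for about 90 hours before reading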
[7] = biological target: Sodium-dependent noradrenaline transporter (Homo sapiens, UniProt P23975); experiment: Late-stage radioligand binding dose response assay to identify inhibitors of NADPH oxidase 1 (NOX1): PDSP screen Ki. [Related pubchem assays (depositor defined):AID1792, AID1796, AID1823, AID2532, AID2538, AID2539, AID2541, AID2545, AID2556, AID2664, AID2752, AID2773, AID434992, AID434993, AID434997, AID435002, AID435009, AID435013, AID463255 …
[8] = biological target: Alpha-2A adrenergic receptor (Homo sapiens, UniProt P08913); experiment: as above
[9] = biological target: Glutamate receptor ionotropic, kainate 5 (Rattus norvegicus, UniProt Q63273); experiment: as above
[10] = biological target: Sodium-dependent serotonin transporter (Homo sapiens, UniProt P31645); experiment: as above
Sequence of Sodium-dependent serotonin transporter (P31645 whole entry): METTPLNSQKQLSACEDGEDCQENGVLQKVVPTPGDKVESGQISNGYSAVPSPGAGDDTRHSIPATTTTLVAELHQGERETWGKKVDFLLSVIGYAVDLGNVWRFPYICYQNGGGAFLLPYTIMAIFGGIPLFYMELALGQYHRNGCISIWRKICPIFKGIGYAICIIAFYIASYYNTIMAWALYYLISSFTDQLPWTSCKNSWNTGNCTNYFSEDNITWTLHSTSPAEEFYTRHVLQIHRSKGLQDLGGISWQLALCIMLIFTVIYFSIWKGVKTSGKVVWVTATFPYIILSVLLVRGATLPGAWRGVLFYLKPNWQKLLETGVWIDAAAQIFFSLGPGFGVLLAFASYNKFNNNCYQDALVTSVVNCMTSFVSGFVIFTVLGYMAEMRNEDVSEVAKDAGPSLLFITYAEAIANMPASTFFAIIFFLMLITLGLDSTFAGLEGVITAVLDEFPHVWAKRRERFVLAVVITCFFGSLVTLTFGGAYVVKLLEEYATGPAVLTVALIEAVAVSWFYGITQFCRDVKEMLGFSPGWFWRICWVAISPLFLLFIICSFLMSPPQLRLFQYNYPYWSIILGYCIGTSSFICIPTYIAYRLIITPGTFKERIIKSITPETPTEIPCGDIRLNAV

[11] = biological target: Muscarinic acetylcholine receptor M4 (Homo sapiens, UniProt P08173); experiment: as above
[12] = biological target: 5-hydroxytryptamine receptor 2B (Homo sapiens, UniProt P41595); experiment: as above
Sequence of 5-hydroxytryptamine receptor 2B (P41595 whole entry): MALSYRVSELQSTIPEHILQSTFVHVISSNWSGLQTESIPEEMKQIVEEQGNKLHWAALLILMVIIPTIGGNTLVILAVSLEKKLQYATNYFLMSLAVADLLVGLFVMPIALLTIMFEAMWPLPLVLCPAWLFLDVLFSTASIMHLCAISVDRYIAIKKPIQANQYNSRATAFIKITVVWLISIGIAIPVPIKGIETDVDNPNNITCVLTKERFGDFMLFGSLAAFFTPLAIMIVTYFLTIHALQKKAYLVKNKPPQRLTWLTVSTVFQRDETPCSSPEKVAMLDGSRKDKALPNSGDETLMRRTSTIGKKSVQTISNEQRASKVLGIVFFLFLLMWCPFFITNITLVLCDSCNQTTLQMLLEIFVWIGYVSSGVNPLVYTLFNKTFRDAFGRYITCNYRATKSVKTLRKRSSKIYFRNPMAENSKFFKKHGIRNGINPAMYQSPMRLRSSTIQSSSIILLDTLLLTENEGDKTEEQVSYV

[13] = biological target: Alpha-2C adrenergic receptor (Homo sapiens, UniProt P18825); experiment: as above
Sequence of Alpha-2C adrenergic receptor (P18825 whole entry): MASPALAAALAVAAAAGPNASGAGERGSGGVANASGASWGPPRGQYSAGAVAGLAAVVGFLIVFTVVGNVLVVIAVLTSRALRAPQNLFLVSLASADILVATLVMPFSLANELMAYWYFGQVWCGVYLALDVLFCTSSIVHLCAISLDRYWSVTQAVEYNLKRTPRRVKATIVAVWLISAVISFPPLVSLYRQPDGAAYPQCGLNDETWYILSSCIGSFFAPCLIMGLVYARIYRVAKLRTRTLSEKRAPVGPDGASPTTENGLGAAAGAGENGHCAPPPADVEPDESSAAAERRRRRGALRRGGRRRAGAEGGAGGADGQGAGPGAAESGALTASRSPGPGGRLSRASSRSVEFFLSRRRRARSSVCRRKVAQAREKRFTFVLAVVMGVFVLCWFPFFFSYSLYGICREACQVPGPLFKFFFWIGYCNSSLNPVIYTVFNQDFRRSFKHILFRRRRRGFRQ

[14] = biological target: Alpha-2B adrenergic receptor (Homo sapiens, UniProt P18089); experiment: as above
[15] = biological target: D(3) dopamine receptor (Homo sapiens, UniProt P35462); experiment: as above
[16] = biological target: Muscarinic acetylcholine receptor M3 (Homo sapiens, UniProt P20309); experiment: as above
[17] = biological target: 5-hydroxytryptamine receptor 4 (Homo sapiens, UniProt Q13639); experiment: as above
[18] = biological target: Oxytocin receptor (Homo sapiens, UniProt P30559); experiment: as above
Sequence of Oxytocin receptor (P30559 whole entry): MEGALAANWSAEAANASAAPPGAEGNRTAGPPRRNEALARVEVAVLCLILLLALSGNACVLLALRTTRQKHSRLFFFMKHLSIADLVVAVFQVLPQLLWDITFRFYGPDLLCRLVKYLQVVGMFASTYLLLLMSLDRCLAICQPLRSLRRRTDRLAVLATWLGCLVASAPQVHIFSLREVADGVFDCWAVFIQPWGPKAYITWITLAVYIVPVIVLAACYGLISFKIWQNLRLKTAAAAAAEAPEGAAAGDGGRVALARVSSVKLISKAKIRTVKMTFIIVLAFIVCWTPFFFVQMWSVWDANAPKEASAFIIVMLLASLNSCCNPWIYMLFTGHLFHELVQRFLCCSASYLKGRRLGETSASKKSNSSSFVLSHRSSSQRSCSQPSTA

[19] = biological target: Muscarinic acetylcholine receptor M5 (Homo sapiens, UniProt P08912); experiment: as above
[20] = biological target: Sigma non-opioid intracellular receptor 1 (Homo sapiens, UniProt Q99720); experiment: as above
[21] = biological target: 5-hydroxytryptamine receptor 2C (Homo sapiens, UniProt P28335); experiment: as above
[22] = biological target: T3, Eukaryotic translation initiation factor 2-alpha kinase 3 (Homo sapiens, UniProt Q9NZJ5); experiment: Dose response cell-based high-throughput screening assay to measure PERK inhibition. [Related pubchem assays: 1416 ]; type: functional
T3 sequence (Q9NZJ5 whole entry): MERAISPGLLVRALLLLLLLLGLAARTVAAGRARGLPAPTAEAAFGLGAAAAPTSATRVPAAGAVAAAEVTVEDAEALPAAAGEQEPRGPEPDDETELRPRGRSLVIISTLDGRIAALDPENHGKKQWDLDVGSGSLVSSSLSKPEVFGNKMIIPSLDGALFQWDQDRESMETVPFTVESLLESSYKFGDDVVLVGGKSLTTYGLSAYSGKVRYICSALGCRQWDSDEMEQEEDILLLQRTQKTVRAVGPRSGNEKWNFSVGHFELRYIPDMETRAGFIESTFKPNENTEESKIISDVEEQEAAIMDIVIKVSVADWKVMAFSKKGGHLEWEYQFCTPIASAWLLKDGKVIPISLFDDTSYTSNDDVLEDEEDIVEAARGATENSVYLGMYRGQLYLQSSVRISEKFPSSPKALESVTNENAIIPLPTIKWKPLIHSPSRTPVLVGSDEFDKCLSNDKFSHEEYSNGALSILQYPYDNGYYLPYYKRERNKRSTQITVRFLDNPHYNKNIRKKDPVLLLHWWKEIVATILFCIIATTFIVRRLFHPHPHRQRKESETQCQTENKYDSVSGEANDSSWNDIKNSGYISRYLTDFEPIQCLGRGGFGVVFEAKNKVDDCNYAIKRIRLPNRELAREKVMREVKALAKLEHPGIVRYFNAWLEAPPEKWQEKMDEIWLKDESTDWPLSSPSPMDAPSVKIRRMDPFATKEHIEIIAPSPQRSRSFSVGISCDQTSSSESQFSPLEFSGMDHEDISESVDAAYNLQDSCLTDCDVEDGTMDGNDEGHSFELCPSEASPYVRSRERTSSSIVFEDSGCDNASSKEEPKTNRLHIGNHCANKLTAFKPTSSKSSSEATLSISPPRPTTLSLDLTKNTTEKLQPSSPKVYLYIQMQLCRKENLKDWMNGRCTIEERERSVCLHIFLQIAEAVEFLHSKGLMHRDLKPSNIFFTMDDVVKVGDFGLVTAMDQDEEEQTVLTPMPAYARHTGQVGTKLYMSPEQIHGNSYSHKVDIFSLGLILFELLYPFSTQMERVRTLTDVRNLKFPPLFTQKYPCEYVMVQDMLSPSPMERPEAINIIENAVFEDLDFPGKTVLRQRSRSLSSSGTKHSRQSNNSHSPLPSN

[23] = biological target: T3, Eukaryotic translation initiation factor 2-alpha kinase 3; experiment: Counterscreen assay for PERK inhibitors: Dose response cell-based high throughput screening assay to measure inhibition of PERK at 6 hours. [Related pubchem assays: 1522, 1416 ]; type: functional
[24] = biological target: Bcl-2-like protein 10 (Homo sapiens, UniProt Q9HD36); experiment: displacers of TR3 peptide from Bcl-B, primary screen, selectivity assay for Bfl-1 inhibitor project, biochemical, fluorescence polarization, FITC-TR3 peptide (AID 748);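 further: fluorescence polarization from a fluorescein-labelled TR3 peptide binding purified Bcl-B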
[25] = biological target: DNA dC->dU-editing enzyme APOBEC-3A (Homo sapiens, UniProt P31941); experiment: Dose Response confirmation of small molecule APOBEC3A DNA Deaminase Inhibitors via a fluorescence-based single-stranded DNA deaminase assay. [Related pubchem assays (depositor defined):AID493011, AID493024]; type: functional
Sequence of DNA dC->dU-editing enzyme APOBEC-3A (P31941 whole entry): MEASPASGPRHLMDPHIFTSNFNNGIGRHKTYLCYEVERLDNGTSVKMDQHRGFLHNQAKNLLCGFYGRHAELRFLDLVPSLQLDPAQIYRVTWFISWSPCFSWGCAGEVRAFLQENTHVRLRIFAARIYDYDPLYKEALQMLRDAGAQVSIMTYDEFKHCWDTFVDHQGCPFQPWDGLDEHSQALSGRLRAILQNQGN

[26] = biological target: DNA dC->dU-editing enzyme APOBEC-3G (Homo sapiens, UniProt Q9HC16); type: functional;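 further: Dose-response counterscreen measuring inhibition of APOBEC3G DNA deaminase activity, run while confirming APOBEC3A inhibitors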
[27] = biological target: Dual specificity protein phosphatase 3 (Homo sapiens, UniProt P51452); experiment: VHR1 inhibitor Ki determination, SAR follow-up, biochemical, colorimetric (AID 2004)
Sequence of Dual specificity protein phosphatase 3 (P51452 whole entry): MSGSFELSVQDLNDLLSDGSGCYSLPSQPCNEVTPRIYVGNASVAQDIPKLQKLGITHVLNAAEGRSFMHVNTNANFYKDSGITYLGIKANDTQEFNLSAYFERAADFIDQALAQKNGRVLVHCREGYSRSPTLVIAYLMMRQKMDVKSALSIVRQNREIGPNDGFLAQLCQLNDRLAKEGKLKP

[28] = biological target: Cyclin-dependent kinase 5/CDK5 activator 1 (Homo sapiens, UniProt Q00535); experiment: CDK5/p35 kinase inhibitors, dose response, biochemical, cherry-picked samples, set 2 (AID 504545)
Sequence of Cyclin-dependent kinase 5/CDK5 activator 1 (Q00535 whole entry): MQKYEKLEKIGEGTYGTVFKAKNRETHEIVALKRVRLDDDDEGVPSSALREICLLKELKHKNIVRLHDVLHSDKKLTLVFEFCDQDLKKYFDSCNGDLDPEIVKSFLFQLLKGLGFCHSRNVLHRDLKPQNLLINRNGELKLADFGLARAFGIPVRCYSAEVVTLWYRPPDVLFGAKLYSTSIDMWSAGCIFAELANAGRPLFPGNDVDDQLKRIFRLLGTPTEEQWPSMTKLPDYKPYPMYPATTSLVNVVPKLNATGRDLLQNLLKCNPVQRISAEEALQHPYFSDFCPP
Sequence of Cyclin-dependent kinase 5/CDK5 activator 1 (Q15078 whole entry, further chain): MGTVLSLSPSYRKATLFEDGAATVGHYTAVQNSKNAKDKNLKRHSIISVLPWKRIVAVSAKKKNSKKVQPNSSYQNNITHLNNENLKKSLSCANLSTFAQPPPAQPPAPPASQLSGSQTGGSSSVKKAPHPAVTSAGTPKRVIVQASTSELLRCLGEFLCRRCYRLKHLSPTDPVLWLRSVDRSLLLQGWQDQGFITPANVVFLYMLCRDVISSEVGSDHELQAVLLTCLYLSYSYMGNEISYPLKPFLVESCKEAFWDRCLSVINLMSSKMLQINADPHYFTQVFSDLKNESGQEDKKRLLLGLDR

[29] = biological target: T1, Eukaryotic translation initiation factor 4H; experiment: eIF4H inhibition in translation initiation, SAR follow-up (AID 435011); type: functional
[30] = biological target: T2, Polyadenylate-binding protein 1; experiment: PABP inhibition in translation initiation, SAR follow-up (AID 435018); type: functional
[31] = biological target: T4, Carboxy-terminal domain RNA polymerase II polypeptide A small phosphatase 1 (Homo sapiens, UniProt Q9GZU7); experiment: inhibitors of CTDSP1, concentration-response testing, biochemical assay, absorbance-based, actives from ultra-high-throughput screening (AID 540297); type: functional
T4 sequence (Q9GZU7 whole entry): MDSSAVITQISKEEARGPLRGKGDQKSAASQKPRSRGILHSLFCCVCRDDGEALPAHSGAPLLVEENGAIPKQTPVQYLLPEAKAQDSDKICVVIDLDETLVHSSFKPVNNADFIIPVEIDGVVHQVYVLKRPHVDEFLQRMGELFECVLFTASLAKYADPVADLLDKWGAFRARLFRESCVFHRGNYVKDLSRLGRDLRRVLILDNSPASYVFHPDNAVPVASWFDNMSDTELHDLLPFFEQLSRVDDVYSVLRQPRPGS

[32] = biological target: T5, Long-chain-fatty-acid--AMP ligase FadD28 (Mycobacterium tuberculosis, UniProt P9WQ59); experiment: Fluorescence polarization aasay to screen for inhibitors that compete for the binding of FadD28 to a bisubstrate Measured in Biochemical System Using Plate Reader - 2147-01_Inhibitor_Dose_CherryPick_Activity.; type: functional, Mycobacterium tuberculosis H37Rv
T5 sequence (P9WQ59 whole entry): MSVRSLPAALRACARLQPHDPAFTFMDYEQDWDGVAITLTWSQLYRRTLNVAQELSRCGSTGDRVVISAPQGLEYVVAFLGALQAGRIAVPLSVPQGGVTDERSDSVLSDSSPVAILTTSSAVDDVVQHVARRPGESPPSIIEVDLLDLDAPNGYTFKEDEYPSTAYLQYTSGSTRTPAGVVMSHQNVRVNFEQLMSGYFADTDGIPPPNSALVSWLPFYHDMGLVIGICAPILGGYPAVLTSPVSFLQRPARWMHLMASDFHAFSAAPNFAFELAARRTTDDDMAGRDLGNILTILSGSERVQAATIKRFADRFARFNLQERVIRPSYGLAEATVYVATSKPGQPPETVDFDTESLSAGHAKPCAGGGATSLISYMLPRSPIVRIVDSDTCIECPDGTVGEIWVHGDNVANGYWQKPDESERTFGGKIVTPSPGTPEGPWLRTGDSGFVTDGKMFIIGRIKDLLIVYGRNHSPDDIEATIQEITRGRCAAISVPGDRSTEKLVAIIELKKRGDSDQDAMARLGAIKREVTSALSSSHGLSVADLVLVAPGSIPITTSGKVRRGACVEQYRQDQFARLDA

For C[N+]1(C)[C@@H]2CC[C@H]1CC(OC(=O)[C@@H](CO)c1ccccc1)C2 (some centres not stated), the IC50 [1] was > 100 µM (inactive) and the IC50 [2] was 4.91 µM (active).
In the case of CN1c2ccccc2Sc2cc(N)ccc21, the CC50 [3] is reported as 27.1 µM (active), the EC50 [4] is reported as 1.27 µM (active) and the IC50 [5] is reported as 0.044 µM (active). The EC50 [6] was > 60 µM (not active), the Ki [7] was 3.94 µM (active) and the Ki [8] was 6.92 µM (active). The Ki [9] was > 10 µM (inactive), the Ki [10] was 10 µM (active) and the Ki [11] was > 10 µM (inactive). For the same compound, the Ki [12] was 0.556 µM (active), the Ki [13] was 5.76 µM (active) and the Ki [14] was 2.72 µM (active). The Ki [15] was 9.06 µM (active), the Ki [16] was 10 µM (inactive) and the Ki [17] was > 10 µM (inactive). For the same compound, the Ki [18] was > 10 µM (inactive), the Ki [19] was > 10 µM (inactive) and the Ki [20] was > 10 µM (inactive). For the same compound, the Ki [21] was 2.96 µM (active).
With CCCn1cnc2c(S)nc(N)nc21 the EC50 [22] was > 55.7 µM (not active) and the EC50 [23] was > 55.7 µM (not active).
In the case of CCC1=[N+](C)CCn2c(C)ccc21, the IC50 [24] is reported as > 100 µM (inactive), the IC50 [25] is reported as 1.51 µM (active) and the IC50 [26] is reported as 1.32 µM (active).
For CCC(CO)N/C=C1\C(=O)N(c2c(Cl)cccc2Cl)c2ccccc21 (configuration not stated), the Ki [27] was 24.2 µM (inactive).
With CC(C)(C)C(=O)c1sc(Nc2ccccc2)nc1N the AC50 [28] was 23.4 µM (active).
For Cc1cccc(NC(=O)CN2C(=O)N/C(=C\c3ccccc3OCc3ccc(C(=O)O)cc3)C2=O)c1, the IC50 [29] was 17.5 µM (active), the IC50 [30] was 77.6 µM (active) and the IC50 [31] was 6.07 µM (active). For the same compound, the AC50 [32] was 9.77 µM (active).
